Measurements reported in patent US8293979B2, “Weed controller metabolism proteins, genes, thereof and use of the same” (Sumitomo Chemical Company, Limited, priority 2001, dated 2012).

Key:
[1] = test system: present invention protein (A17); experiment: Detection of the ability to convert compound (II) to compound (III), E. coli pKSN608F extract; format: in vitro ADME, Streptomyces griseus ATCC 10137; details: 3 ppm of compound (II) labeled with 14C, components A, B, 10 minutes at 30° C.
Method: (§1) Reaction solutions of 30 μl were prepared and maintained for 10 minutes at 30° C. The reaction solutions consisted of a 0.1M potassium phosphate buffer (pH7.0) containing 3 ppm of compound (II) labeled with ^14C, 2 mM of β-NADPH (hereinafter, referred to as “component A”) (Oriental Yeast Company), 2 mg/ml of a ferredoxin derived from spinach (hereinafter referred to as “component B”) (Sigma Company), 0.1 U/ml of ferredoxin reductase (hereinafter, referred to as “component C”) (Sigma Company) and 23 μl of the supernatant fraction recovered in Example 32(2). Similarly to Example 4(3), the reaction solutions after the maintenance were extracted with ethyl acetate and the extracted layers were TLC analyzed. […] A spot corresponding to compound (III) was detected from the reaction solution containing E. coli pKSN849AF extract. In contrast, such a spot was not detected from the reaction solution containing E. coli pKSN2 extract.
(§2) Similarly to Example 32(3), reaction solutions of 30 μl were prepared and maintained for 10 minutes at 30° C. […] The reaction solutions after the maintenance were extracted with ethyl acetate and the extracted layers were TLC analyzed. […] A spot corresponding to compound (III) was detected from the reaction solution containing E. coli pKSN608F extract. In contrast, such a spot was not detected from the reaction solution containing E. coli pKSN2 extract.

[2] = test system: Barnyardgrass; experiment: Herbicidal activity test, soil surface treatment; format: in vivo, Echinochloa crus-galli; parameters: key: 0: situations in which the condition of sprouting or vegetation at the time of examination of the plant utilized for the test was compared with and showed totally or substantially no difference with that of the untreated application; 10: situations in which the plant completely withered or the sprouting or vegetation was completely suppressed; details: 500 g/ha, sprayed onto the surface of the soil after seeding, investigated after 19 days in a greenhouse
Method: Soil was packed into a round plastic pot having a diameter of 10 cm and depth of 10 cm. Barnyardgrass, Blackgrass, Ivyleaf morningglory were seeded. Five (5) parts of the test compound, 6 parts of sorpol3005X (Toho Chemical Company) and 89 parts of xylene were well mixed to produce an emulsion. A certain amount thereof was diluted with water containing 0.1% (v/v) of a sticking agent at a proportion of 1000 L for 1 hectare and was spread uniformly with a spray-gun onto the surface of the soil. After cultivating the plants for 19 days in a greenhouse, the herbicidal activity was investigated.
In the above Tables 3 and 4, the strength of the herbicidal activity is shown stepwise as 0, 1, 2, 3, 4, 5, 6, 7, 8, 9, and 10.

[3] = test system: present invention protein (A23); experiment: Detection of the ability to convert compound (II) to compound (III), E. coli pKSN1584F extract; format: in vitro ADME, Streptomyces roseorubens IFO 13682T; details: 3 ppm of compound (II) labeled with 14C, components A, B, 10 minutes at 30° C.
Method: as §1
as §2, with “pKSN1584F” for “pKSN608F”

[4] = test system: Streptomyces lavendulae ATCC11924; experiment: Metabolism of compound (II) by a microorganism; format: in vitro ADME; details: compound (II) at 100 ppm, 7 to 8 days at 30° C.
Method: (§3) The HPLC for content analysis in Examples 1, 41 and 42 and fraction purification of the compound was conducted under the conditions shown below.
(§4) The various microorganisms shown in Tables 1 and 2 were grown in ISP2 agar medium (1.0% (w/v) malt extract, 0.4% (w/v) yeast extract, 0.4% (w/v) glucose, 2.0% (w/v) agar, pH 7.3). A “loopful” of the each microorganism was added to TGY medium (0.5% (w/v) tryptone, 0.5% (w/v) yeast extract, 0.1% (w/v) glucose, 0.01% (w/v) KH2PO4, pH 7.0) and incubated with shaking at 30° C. for 2 to 4 days. One-tenth milliliter (0.1 ml) of the obtained culture was incubated with shaking in 3 ml of sporulation medium (0.1% (w/v) of meat extract, 0.2% (w/v) tryptose, 1% glucose, pH 7.1) containing compound (II) at 100 ppm for 7 to 8 days at 30° C. Fifty microliters (50 μl) of 2N HCl was added to the resulting culture and this was extracted with 3 ml of ethyl acetate. The obtained ethyl acetate layer was analyzed on the HPLC. The concentration of compound (II) was reduced (column retention time of 23.9 minutes) and new peaks were detected for compounds at retention times of 21.6 minutes and 22.2 minutes (each referred to as metabolite (I) and metabolite (II)).

[5] = test system: Streptomyces lydicus IFO13058; experiment: Metabolism of compound (II) by a microorganism; format: in vitro ADME; details: compound (II) at 100 ppm, 7 to 8 days at 30° C.
Method: as §3, §4

[6] = test system: Streptomyces erythreus ATCC11635; experiment: Metabolism of compound (II) by a microorganism; format: in vitro ADME; details: compound (II) at 100 ppm, 7 to 8 days at 30° C.
Method: as §3, §4

[7] = test system: Streptomyces griseus ATCC15395; experiment: Metabolism of compound (II) by a microorganism; format: in vitro ADME; details: compound (II) at 100 ppm, 7 to 8 days at 30° C.
Method: as §3, §4

[8] = test system: present invention protein (A21); experiment: Detection of the ability to convert compound (II) to compound (III), E. coli pKSN1543BF extract; format: in vitro ADME, Streptomyces misawanensis IFO 13855T; details: 3 ppm of compound (II) labeled with 14C, components A, B, 10 minutes at 30° C.
Method: as §1
as §2, with “pKSN1543BF” for “pKSN608F”

[9] = test system: present invention protein (A22); experiment: Metabolism of compounds by the present invention protein (A22), reaction solution, HPLC; format: in vitro ADME, Streptomyces pallidus IFO 13434T; details: 12.5 ppm of compound, components A, B, C, 20 μl supernatant fraction of Example 61(2), 30° C. for 10 minutes

Structure (SMILES) | spot corresponding to compound (III) labeled with 14C (TLC) [1] | Herbicidal Activity Barnyardgrass [2] | spot corresponding to compound (III) labeled with 14C (TLC) [3] | concentration of compound (II) [4] [ppm] | concentration of compound (II) [5] [ppm] | concentration of compound (II) [6] [ppm] | concentration of compound (II) [7] [ppm] | spot corresponding to compound (III) labeled with 14C (TLC) [8] | concentration of the compound detected from metabolism solution (A22) compared to control solution (A22) [9]
C[C@@H](Oc1cc(-n2c(=O)cc(C(F)(F)F)n(C)c2=O)c(F)cc1Cl)C(=O)O [compound (II)] | detected | 10 | detected | 89.6 | 62.0 | 54.6 | 75.2 | detected | –
Cn1c(C(F)(F)F)cc(=O)n(-c2cc(Oc3cccnc3OCC(=O)O)c(Cl)cc2F)c1=O [compound (XII)] | – | – | – | – | – | – | – | – | lower
